In patent US9192656B2, “Methods and compositions for the treatment of cancer” (QUINTESSENCE BIOSCIENCES, INC., priority 2006, dated 2015):

Legend:
[1] = test system: human pancreatic cancer cell line (B×PC-3); assay: In vivo inhibition of tumor growth, BxPC-3 xenograft; set-up: species or system human tumor cells in nude mice; conditions: for Starting volume: at start
Method: (§1) Cells from a non-small cell lung cancer cell line (A549) were grown in nine T175 flasks in F12K media and 10% fetal calf serum until the cells were confluent. 4.5×10^6 cells (in 100 microliters) were injected into the right rear flank of 4-5 week old male homozygous (nu/nu) nude mice (Harlan, Madison Wis.). Tumors were allowed to grow to an average size of ≧75 mm^3 before treatments were initiated. Animals of each tumor type, with the properly sized tumors, were divided into treatment groups, including one set of animals treated weekly with vehicle (phosphate buffered saline, PBS). The vehicle and the test agents were all administered by intraperitoneal injection. Each animal was weighed twice a week during treatment. The tumors were measured twice weekly using calipers. Tumor volume (mm^3) was determined by using the formula for an ellipsoid sphere: […]
(§2) The percent tumor growth inhibition (% TGI) is calculated by: […]
The xenograft model of this example was set up as in the previous example except that a human pancreatic cancer cell line (B×PC-3) was used. The efficacy of wild type human RNase 1 is shown relative to gemcite. The RNase 1 was administered at 15 mg per kg of body weight of the animal five times per week (15 mg/kg qd×5), while the gemcite was used at 60 mg/kg twice a week. The value of n represents the number of animals in the specific treatment arm of the experiment.
The xenograft model of this example was set up as in the previous example except that a human pancreatic cancer cell line (B×PC-3) was used. The efficacy of wild type human RNase 1 is shown. The RNase 1 was administered at three different doses: (1) 30 mg per kg of body weight of the animal once per week (30 mg/kg 1×wk), (2) 75 mg/kg 1×wk, or (3) 150 mg/kg 1×wk. The value of n represents the number of animals in the specific treatment arm of the experiment.

[2] = test system: human breast cancer cell line (MDA-MB-231); assay: In vivo inhibition of tumor growth, MDA-MB-231 xenograft; set-up: species or system human tumor cells in nude mice; conditions: Example 10, Table 14, female mice, RNase 1 75 mg/kg 1×wk, doxorubicin 3 mg/kg once per week
Method: as §1, §2
The xenograft model of this example was set up as in the previous example except that a human breast cancer cell line (MDA-MB-231) and female mice were used. The efficacy of wild type human RNase 1 is shown relative to doxorubicin. The RNase 1 was administered at 75 mg per kg of body weight of the animal once per week (75 mg/kg 1×wk), while the doxorubicin was given at 3 mg/kg once per week. The value of n represents the number of animals in the specific treatment arm of the experiment.

[3] = test system: tumor; conditions: previous experiments, Cancer Res., 64:4870 [2004]; cited from earlier work
[4] = test system: non-small cell lung cancer cell line (A549); assay: In vivo inhibition of tumor growth, A549 xenograft; set-up: species or system human tumor cells in nude mice; conditions: for Starting volume: at start
Method: Cells from a non-small cell lung cancer cell line (A549) were grown in nine T175 flasks in F12K media and 10% fetal calf serum until the cells were confluent. 4.5×10^6 cells (in 100 microliters) were injected into the right rear flank of 4-5 week old male homozygous (nu/nu) nude mice (Harlan, Madison Wis.). Tumors were allowed to grow to an average size of ≧75 mm^3 before treatments were initiated. Animals of each tumor type, with the properly sized tumors, were divided into treatment groups, including one set of animals treated weekly with vehicle (phosphate buffered saline, PBS). The vehicle and the test agents were all administered by intraperitoneal injection. Each animal was weighed twice a week during treatment. The tumors were measured twice weekly using calipers. Tumor volume (mm^3) was determined by using the formula for an ellipsoid sphere:
[formula] The efficacy of wild type human RNase 1 is shown relative to cisplatin. The RNase 1 was administered at 75 mg per kg of body weight of the animal once a week (75 mg/kg 1×wk), while the cisplatin was used at 6 mg/kg once a week. The value of n represents the number of animals in the specific treatment arm of the experiment.
as §2
The xenograft model of this example was set up with the human non-small cell lung cancer cell line (A549) as in the previous examples. The efficacy of wild type human RNase 1 is shown relative to tarceva. The RNase 1 was administered at 75 mg per kg of body weight of the animal (75 mg/kg 1×wk) or 150 mg/kg 1×wk. Tarceva was given orally with doses of 50 mg/kg twice a week. The value of n represents the number of animals in the specific treatment arm of the experiment.

[5] = Example 5, Table 9, RNase 1 15 mg/kg qd×5, gemcite 60 mg/kg twice a week
[6] = Example 7, Table 11, 30 mg/kg 1×wk
[7] = Example 7, Table 11, 75 mg/kg 1×wk
[8] = Example 7, Table 11, 150 mg/kg 1×wk
[9] = Example 3, Table 7, i.p., RNase 1 75 mg/kg 1×wk, cisplatin 6 mg/kg once a week
[10] = Example 6, Table 10, 75 mg/kg 1×wk
[11] = Example 6, Table 10, 150 mg/kg 1×wk

Wild type human RNase 1: wild type human ribonuclease 1 (human pancreatic RNase), SEQ ID NO:1
% TGI [1, 5]: 24% | (Final − start) [1, 5]: 822 mm^3 | (Final − start)/Control [1, 5]: 0.76 | Final volume [1, 5]: 899 mm^3 | Starting volume [1, 5]: 77 mm^3 | % TGI [1, 6]: 3% | (Final − start) [1, 6]: 554 mm^3 | (Final − start)/Control [1, 6]: 0.97 | Final volume [1, 6]: 632 mm^3 | Starting volume [1, 6]: 78 mm^3 | % TGI [1, 7]: 43% | (Final − start) [1, 7]: 323 mm^3 | (Final − start)/Control [1, 7]: 0.57 | Final volume [1, 7]: 392 mm^3 | Starting volume [1, 7]: 69 mm^3 | % TGI [1, 8]: 29% | (Final − start) [1, 8]: 402 mm^3 | (Final − start)/Control [1, 8]: 0.71 | Final volume [1, 8]: 471 mm^3 | Starting volume [1, 8]: 69 mm^3 | % TGI [2]: 64% | (Final − start) [2]: 50 mm^3 | (Final − start)/Control [2]: 0.36 | Final volume [2]: 121 mm^3 | Starting volume ([2]; at start): 71 mm^3 | reduction in tumor volume [3]: did not demonstrate a reduction in tumor volume | % TGI [4, 9]: 51% | (Final − start) [4, 9]: 149 mm^3 | (Final − start)/Control [4, 9]: 0.49 | Final volume [4, 9]: 217 mm^3 | Starting volume [4, 9]: 68 mm^3 | % TGI [4, 10]: 63% | (Final − start) [4, 10]: 300 mm^3 | (Final − start)/Control [4, 10]: 0.37 | Final volume [4, 10]: 378 mm^3 | Starting volume [4, 10]: 78 mm^3 | % TGI [4, 11]: 66% | (Final − start) [4, 11]: 276 mm^3 | (Final − start)/Control [4, 11]: 0.34 | Final volume [4, 11]: 355 mm^3 | Starting volume [4, 11]: 79 mm^3
